# Reference: patent US12708630B2, “Combined therapy of 4′-thio-5-aza-2′-deoxycytidine and Venetoclax” (PINOTBIO, INC., priority 2021, dated 2026)
# Experiments:
# Experiment in all cases: drug activity profiling cytotoxicity
# Type in all cases: cell-based
# [1] = test system: A-253; settings: Homo sapiens, A253; A-253 cell line, Head and Neck; read-out: Aza-T-dCyd IC50
# Summary of the method: (§1)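 Each line's cytotoxic response to Aza-T-dCyd was recorded within a 200-line profiling study designed to find predictive markers.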
# [2] = test system: A427; settings: Homo sapiens, A-427; A427 cell line, Lung (NSCLC); read-out: Aza-T-dCyd IC50
# Summary of the method: as §1
# [3] = test system: AGS; settings: Homo sapiens; AGS cell line, Stomach; read-out: Aza-T-dCyd IC50
# Summary of the method: as §1
# [4] = test system: BT474; settings: Homo sapiens, BT-474; BT474 cell line, Breast; read-out: Aza-T-dCyd IC50
# Summary of the method: as §1
# [5] = test system: CML-T1; settings: CML-T1 cell line, read-out: Aza-T-dCyd IC50
# Summary of the method: as §1
# [6] = test system: COR-L105; settings: Homo sapiens; COR-L105 cell line, Lung (NSCLC); read-out: Aza-T-dCyd IC50
# Summary of the method: as §1
# [7] = test system: Capan-1; settings: Homo sapiens; Capan-1 cell line, Pancreas; read-out: Aza-T-dCyd IC50
# Summary of the method: as §1
# [8] = test system: Colo 205; settings: Homo sapiens; Colo 205 cell line, Colon; read-out: Aza-T-dCyd IC50
# Summary of the method: as §1
# [9] = test system: Colo 320DM; settings: Homo sapiens; Colo 320DM cell line, Colon; read-out: Aza-T-dCyd IC50
# Summary of the method: as §1
# [10] = test system: DBTRG-05MG; settings: Homo sapiens; DBTRG-05MG cell line, CNS (Glioma); read-out: Aza-T-dCyd IC50
# Summary of the method: as §1
# [11] = test system: DK-MG; settings: DK-MG cell line, CNS (Glioma); read-out: Aza-T-dCyd IC50
# Summary of the method: as §1
# [12] = test system: FaDu; settings: Homo sapiens; FaDu cell line, Head and Neck; read-out: Aza-T-dCyd IC50
# Summary of the method: as §1
# [13] = test system: G-361; settings: Homo sapiens; G-361 cell line, Skin (Melanoma); read-out: Aza-T-dCyd IC50
# Summary of the method: as §1
# [14] = test system: H4; settings: H4 cell line, CNS (Glioma); read-out: Aza-T-dCyd IC50
# Summary of the method: as §1
# [15] = test system: HT; settings: Homo sapiens; HT cell line, B-cell lymphoma; read-out: Aza-T-dCyd IC50
# Summary of the method: as §1
# [16] = test system: Hs 766T; settings: Hs766T; Hs 766T cell line, Pancreas; read-out: Aza-T-dCyd IC50
# Summary of the method: as §1
# [17] = test system: IM-9; settings: Homo sapiens; IM-9 cell line, B-cell lymphoma; read-out: Aza-T-dCyd IC50
# Summary of the method: as §1
# [18] = test system: KG-1; settings: Homo sapiens; KG-1 cell line, AML; read-out: Aza-T-dCyd IC50
# Summary of the method: as §1
# [19] = test system: LS-174T; settings: Homo sapiens, LS174T; LS-174T cell line, Colon; read-out: Aza-T-dCyd IC50
# Summary of the method: as §1
# [20] = test system: MALME3M; settings: Homo sapiens, Malme-3M; MALME3M cell line, Skin (Melanoma); read-out: Aza-T-dCyd IC50
# Summary of the method: as §1
# [21] = test system: MDA MB 453; settings: Homo sapiens; MDA MB 453 cell line, Breast; read-out: Aza-T-dCyd IC50
# Summary of the method: as §1
# [22] = test system: MS751; settings: MS751 cell line, Female GU (Cervix); read-out: Aza-T-dCyd IC50
# Summary of the method: as §1
# [23] = test system: OE33; settings: Homo sapiens; OE33 cell line, Head and Neck; read-out: Aza-T-dCyd IC50
# Summary of the method: as §1
# [24] = test system: RS4; 11; settings: Homo sapiens, 11 cell line, ALL, read-out: Aza-T-dCyd IC50
# Summary of the method: as §1
# [25] = test system: SCaBER; settings: Homo sapiens; SCaBER cell line, Bladder; read-out: Aza-T-dCyd IC50
# Summary of the method: as §1
# [26] = test system: SW579; settings: SW579 cell line, Endocrine (Thyroid); read-out: Aza-T-dCyd IC50
# Summary of the method: as §1
# [27] = test system: SW837; settings: Homo sapiens; SW837 cell line, Colon; read-out: Aza-T-dCyd IC50
# Summary of the method: as §1
# [28] = test system: SW982; settings: Homo sapiens; SW982 cell line, Sarcoma; read-out: Aza-T-dCyd IC50
# Summary of the method: as §1
# [29] = test system: TT; settings: Homo sapiens; TT cell line, Endocrine (Thyroid); read-out: Aza-T-dCyd IC50
# Summary of the method: as §1
# [30] = test system: UM-UC-3; settings: Homo sapiens, UMUC3; UM-UC-3 cell line, Bladder; read-out: Aza-T-dCyd IC50
# Summary of the method: as §1
# [31] = test system: VA-ES-BJ; settings: VA-ES-BJ cell line, Sarcoma; read-out: Aza-T-dCyd IC50
# Summary of the method: as §1
smiles,measurement,setting,value
"Nc1ncn([C@H]2CC(O)[C@@H](CO)S2)c(=O)n1 (stereo partly shown) [Aza-T-dCyd, 4′-thio-5-aza-2′-deoxycytidine]",IC50,[1],601 nM
same,IC50,[2],77.5 nM
same,IC50,[3],58.4 nM
same,IC50,[4],> 10000 nM
same,IC50,[5],109 nM
same,IC50,[6],2240 nM
same,IC50,[7],3320 nM
same,IC50,[8],81.1 nM
same,IC50,[9],92.3 nM
same,IC50,[10],> 10000 nM
same,IC50,[11],> 10000 nM
same,IC50,[12],208 nM
same,IC50,[13],1080 nM
same,IC50,[14],80.1 nM
same,IC50,[15],1030 nM
same,IC50,[16],9400 nM
same,IC50,[17],1050 nM
same,IC50,[18],461 nM
same,IC50,[19],> 10000 nM
same,IC50,[20],7450 nM
same,IC50,[21],1890 nM
same,IC50,[22],> 10000 nM
same,IC50,[23],161 nM
same,IC50,[24],20.3 nM
same,IC50,[25],187 nM
same,IC50,[26],1050 nM
same,IC50,[27],354 nM
same,IC50,[28],171 nM
same,IC50,[29],> 10000 nM
same,IC50,[30],289 nM
same,IC50,[31],241 nM
